The text below walks through data of US20150299614A1, “IMPROVEMENTS IN OR RELATING TO ORGANIC COMPOUNDS” (Givaudan, S.A., priority 2012, published 2015).

Each structure is given as a SMILES string.

The nature of data set [1]: Odour perception threshold. As to conditions: in air.
The nature of data set [2]: Colour stability in fine fragrance (ethanol solution, indoor daylight). As to conditions: 1 and 0.5% wt/wt in 96% EtOH, glass vials, visual inspection. It counts as physicochemical. The method, then:
A solution of the test compound (compound of formula (I) specified in the Table below) was prepared in perfumery grade ethanol (96% EtOH, 4% water) at 1 and 0.5% wt/wt. The solutions were placed in 2.5 ml transparent glass vials closed with plastic lids. The vials were placed behind a window exposed to indoor daylight. The colour of the solutions was inspected visually over a 1 month period.

Data set [3] is described as follows: Colour stability in bar soap. It counts as physicochemical. As to conditions: tallow toilet soap, 2% wt/wt of a 10% wt/wt solution in DPG, 1 month at 45° C. The method, then: The extruded 24×8 mm soap string was cut into 8 cm pieces, which were placed in a thermostated oven for 1 month at 45° C. A control sample containing no fragrance was added to the stability test series.

The test system of data set [4] is KeratinoSens™ cell line (Luciferase gene under the control of the ARE-element of the gene AKR1C2). The data set can be described thus: KeratinoSens assay for skin sensitization (luciferase gene induction). The class given is cell-based. As to conditions: for luciferase gene induction relative to the 1.5-fold threshold: 48 h incubation, 0.98 to 2000 μM, FIG. 1; for skin sensitization rating by the KeratinoSens assay: positive if EC1.5 below 1000 μM, viability above 70%, dose-response. As for the experimental part: The KeratinoSens™ cell line contains a stable insertion of a Luciferase gene under the control of the ARE-element of the gene AKR1C2. The optimization of this cell line and the standard method to test chemicals has been described in detail in Emter et. al. 2010 (Emter R., Ellis G., Natsch A., 2010 “Performance of a novel keratinocyte-based reporter cell line to screen skin sensitizers in vitro. Toxicol Appl Pharmacol 245, 281-290). Cells were grown for 24 h in 96-well plates. The medium was then replaced with medium containing the test chemical and the solvent Dimethylsulfoxide (DMSO) at a final level of 1%. Each compound was tested at 12 binary dilutions in the range from 0.98 to 2000 μM. In each repetition, three parallel replicate plates were run with this same set-up and a fourth parallel plate was prepared for cytotoxicity determination using an MTT assay. Cells were incubated for 48 h with the test agents, and then luciferase activity and cytotoxicity were determined. This full procedure was repeated at least three times for each chemical. For each chemical in each repetition and at each concentration, the gene induction compared to DMSO controls and the wells with statistically significant induction over the threshold of 1.5 (i.e. 50% enhanced gene activity) were determined. Furthermore the maximal fold-induction (Imax) and the EC1.5 value (concentration in μM for induction above the threshold) were calculated. Chemicals are rated as positive (i.e. likely skin-sensitizers) in the assay if the following three criteria are fulfilled (i) The EC1.5 value is below 1000 μM in all three repetitions or in at least 2 repetitions, (ii) at the lowest concentration with a gene induction above 1.5 fold (i.e. at the EC 1.5 determining value), the cellular viability is above 70% and (iii) there is an apparent overall dose-response for luciferase induction, which is similar between the repetitions.

In another data set the test system is KeratinoSens™ cell line. The data set can be described thus: Cytotoxicity determination using an MTT assay in the KeratinoSens assay. The settings on record: 48 h, oxime: no significant cytotoxicity up to the value, Isoeugenol: cytotoxic above the value. The class given is cell-based. The method, then:
The KeratinoSens™ cell line contains a stable insertion of a Luciferase gene under the control of the ARE-element of the gene AKR1C2. The optimization of this cell line and the standard method to test chemicals has been described in detail in Emter et. al. 2010 (Emter R., Ellis G., Natsch A., 2010 “Performance of a novel keratinocyte-based reporter cell line to screen skin sensitizers in vitro. Toxicol Appl Pharmacol 245, 281-290). Cells were grown for 24 h in 96-well plates. The medium was then replaced with medium containing the test chemical and the solvent Dimethylsulfoxide (DMSO) at a final level of 1%. Each compound was tested at 12 binary dilutions in the range from 0.98 to 2000 μM. In each repetition, three parallel replicate plates were run with this same set-up and a fourth parallel plate was prepared for cytotoxicity determination using an MTT assay. Cells were incubated for 48 h with the test agents, and then luciferase activity and cytotoxicity were determined. […] For each chemical in each repetition and at each concentration, the gene induction compared to DMSO controls and the wells with statistically significant induction over the threshold of 1.5 (i.e. 50% enhanced gene activity) were determined. Furthermore the maximal fold-induction (Imax) and the EC1.5 value (concentration in μM for induction above the threshold) were calculated. […]
For orientation: Tetrazolium dyes change colour on reduction, which living cells bring about.

The nature of data set [5]: Colour stability in colourless consumer base. It counts as physicochemical. As to conditions: dosed in a colourless consumer base at 0.02%, storage 4 weeks at 45 ° C. The method, then: By the term “colour stable” is meant that when dosed in a colourless consumer base at 0.02% and held under storage for 4 weeks at 45 ° C., bases containing the compounds of formula (I) remain colourless upon visual inspection. On the other hand, bases containing iso-eugenol and iso-eugenol “[…]” such as vanillin at the same concentration were discoloured, variously appearing to have yellowish, orange, […] or brown hues.

Take `CC(C)c1cccc(C(C)CC=O)c1` (centres unmarked) [3-(3-isopropylphenyl)butanal]: in data set [1], the perception threshold was found to be 0.07 ng/L.

For `CC/C=C\CC/C=C/C=N/OC` [(1E,2E,6Z)-nona-2,6-dienal O-methyl oxime], in data set [1], the perception threshold came to 2.94 ng/L.

Take `CC/C=C\CC/C=C/C=O` [(2E,6Z)-nona-2,6-dienal]: the perception threshold in data set [1] stood at 0.06 ng/L.

As for `CCOc1cc(C=NOC)ccc1O` [Cpd I (R1 = Et, R2 = Me), 3-ethoxy-4-hydroxybenzaldehyde O-methyl oxime], the “Colour of ethanol solution after 1 month” value in data set [2] is recorded as “colourless”. For the same compound, the “Colour of ethanol solution after 1 month” value in data set [2] (listed as compound I) is listed as “would have passed the requirements for colourless fine fragrance”. Further, the “colour of soap after one month” value in data set [3] was “remained as control”. Also, in data set [4], the “luciferase gene induction relative to the 1.5-fold threshold” value is “did not induce luciferase activity above the 1.5-fold threshold” and the “skin sensitization rating by the KeratinoSens assay” value was “non-sensitizing”. For the same compound, the “concentration above which cytotoxic (cell viability)” value in the data set with KeratinoSens™ cell line is greater than 1000 µM.

On to `CO/N=C/CC(C)c1cccc(C(C)C)c1` (centres unmarked) [E)-3-(3-isopropylphenyl)butanal O-methyl oxime], for which the perception threshold in data set [1] came out at 22.4 ng/L.

In the case of `CCOc1cc(C=O)ccc1O` [Ethyl Vanillin], the results for the “Colour of ethanol solution after 1 month” value in data set [2] and in data set [2] (listed as ethyl vanillin) were “yellow” and “unacceptable yellow colour”, respectively. Besides, in data set [3], the “colour of soap after one month” value is “chocolate brown”.

`CC=Cc1ccc(O)c(OC)c1` [Isoeugenol]: the “colour of consumer base upon visual inspection” value in data set [5] is “discoloured”. For the same compound, in data set [4], the “luciferase gene induction relative to the 1.5-fold threshold” value is given as “clearly induces the gene already in the lower micromolar range” and the “skin sensitization rating by the KeratinoSens assay” value is on record as “sensitizing”. In addition, the “concentration above which cytotoxic (cell viability)” value in the data set on KeratinoSens™ cell line was “above 500 micromolar”.

With `COc1cc(C=O)ccc1O` [Vanillin], the “Colour of ethanol solution after 1 month” value in data set [2] is listed as “yellow”; in data set [2] (listed as vanillin), “unacceptable yellow colour”. The “colour of consumer base upon visual inspection” value in data set [5] is “discoloured”.
